Our source for the Ki values is US8119692B2 (priority 2007, dated 2012).

For the test, the target named is Lethal factor protease (Bacillus anthracis, UniProt P15917). Description: biochemical. To be noted: LF (FRET) Ki^app.

pKi: −log10 of the molar value.

Sequence of Lethal factor protease (P15917 34-809 limits assumed): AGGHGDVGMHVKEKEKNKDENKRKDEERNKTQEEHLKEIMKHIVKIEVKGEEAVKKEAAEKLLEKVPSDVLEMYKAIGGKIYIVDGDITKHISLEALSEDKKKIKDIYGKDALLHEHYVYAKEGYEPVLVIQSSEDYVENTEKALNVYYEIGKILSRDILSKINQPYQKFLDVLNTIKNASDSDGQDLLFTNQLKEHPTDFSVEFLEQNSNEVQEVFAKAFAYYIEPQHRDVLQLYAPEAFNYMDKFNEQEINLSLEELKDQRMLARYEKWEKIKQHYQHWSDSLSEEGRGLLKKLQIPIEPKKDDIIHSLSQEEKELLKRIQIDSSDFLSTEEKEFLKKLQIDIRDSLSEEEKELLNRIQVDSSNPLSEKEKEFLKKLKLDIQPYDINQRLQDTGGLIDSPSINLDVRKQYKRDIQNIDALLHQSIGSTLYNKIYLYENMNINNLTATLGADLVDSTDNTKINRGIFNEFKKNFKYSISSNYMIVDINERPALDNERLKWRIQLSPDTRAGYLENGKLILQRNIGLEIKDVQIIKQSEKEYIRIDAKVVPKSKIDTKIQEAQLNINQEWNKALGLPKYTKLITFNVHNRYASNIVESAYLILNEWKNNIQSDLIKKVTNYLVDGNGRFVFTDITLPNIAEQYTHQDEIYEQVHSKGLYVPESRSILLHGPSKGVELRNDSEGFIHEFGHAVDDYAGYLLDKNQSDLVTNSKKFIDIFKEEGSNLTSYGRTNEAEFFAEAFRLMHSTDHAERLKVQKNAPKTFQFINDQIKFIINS

In general, pKi refers to the negative decadic logarithm of the Ki, by convention in mol/L. Low readings indicate a large Ki, high ones a small Ki. `COC(CCC(=O)NO)c1cccc(C(F)(F)F)c1` (stereo not shown) [Compound 167492, N-hydroxy-4-methoxy-4-(3-(trifluoromethyl)phenyl)butanamide] gave a pKi of less than 3.52.

In the case of `CO[C@H](C[C@H](C/C=C/c1ccccc1)C(=O)NO)c1ccc(F)cc1` [Compound 167354], the negative-log Ki (pKi) was 5.03.

Turning to `COC(CCC(=O)NO)c1cccc(Cl)c1` (stereo not shown) [Compound 167461, 4-(3-chlorophenyl)-N-hydroxy-4-methoxybutanamide], the pKi was 4.06.

As for `COC(CCC(=O)NO)c1cccc(C)c1` (stereo not shown) [Compound 167491, N-hydroxy-4-methoxy-4-m-tolylbutanamide], the pKi was 3.75. Compared with the last compound, the pKi is 0.31 log units lower.

Consider `CO[C@H](C[C@H](CCN1CCN(C(=O)OC(C)(C)C)CC1)C(=O)NO)c1ccc(F)cc1` [Compound 167944, tert-butyl 4-((3S,5R)-5-(4-fluorophenyl)-3-(hydroxycarbamoyl)-5-methoxypentyl)piperazine-1-carboxylate], for which the pKi was 5.60.

`CO[C@H](C[C@H](CCCCNCC1CCCCC1)C(=O)NO)c1ccc(F)cc1` [Compound 168227, (S)-6-(cyclohexylmethylamino)-2-((R)-2-(4-fluorophenyl)-2-methoxyethyl)-N-hydroxyhexanamide] had a pKi of 6.16.

Compound `CO[C@H](C[C@H](CCCCNCc1cc2ccccc2s1)C(=O)NO)c1ccc(F)cc1` [Compound 168231, (S)-6-(benzo[b]thiophen-2-ylmethylamino)-2-((R)-2-(4-fluorophenyl)-2-methoxyethyl)-N-hydroxyhexanamide] showed a pKi of 6.49.

Turning to `CO[C@H](C[C@H](CCN(Cc1ccccc1)Cc1ccccc1)C(=O)NO)c1ccc(F)cc1` [Compound 167996, (2S,4R)-2-(2-(dibenzylamino)ethyl)-4-(4-fluorophenyl)-N-hydroxy-4-methoxybutanamide], the negative-log Ki (pKi) is 4.48.

`CO[C@H](C[C@H](CC1CC1)C(=O)NO)c1ccc(F)cc1` [Compound 167433, (2S,4R)-2-(cyclopropylmethyl)-4-(4-fluorophenyl)-N-hydroxy-4-methoxybutanamide] showed a negative-log Ki (pKi) of 5.85.

In turn, `CO[C@H](C[C@H](CCN1CCC[C@H](CO)C1)C(=O)NO)c1ccc(F)cc1` [Compound 168039, (2S,4R)-4-(4-fluorophenyl)-N-hydroxy-2-(2-((S)-3-(hydroxymethyl)piperidin-1-yl)ethyl)-4-methoxybutanamide] had a pKi of 6.24.

`CO[C@H](C[C@H](CCCCN1CCN(Cc2ccccc2)CC1)C(=O)NO)c1ccc(F)cc1` [Compound 168226, (S)-6-(4-benzylpiperazin-1-yl)-2-((R)-2-(4-fluorophenyl)-2-methoxyethyl)-N-hydroxyhexanamide]: the pKi is 6.24.

`CO[C@H](C[C@H](CCN(C)CCN(C)c1ccccc1)C(=O)NO)c1ccc(F)cc1` [Compound 168058, (2S,4R)-4-(4-fluorophenyl)-N-hydroxy-4-methoxy-2-(2-(methyl(2-(methyl(phenyl)amino)ethyl)amino)ethyl)butanamide]: the pKi was 6.11.

As to `CO[C@H](C[C@H](CCN1CCN(c2ccccc2)CC1)C(=O)NO)c1ccc(F)cc1` [Compound 167986, (2S,4R)-4-(4-fluorophenyl)-N-hydroxy-4-methoxy-2-(2-(4-phenylpiperazin-1-yl)ethyl)butanamide], the negative-log Ki (pKi) is 5.65.

`CO[C@H](C[C@H](CCN(C)C/C=C/c1ccccc1)C(=O)NO)c1ccc(F)cc1` [Compound 168017, (2S,4R)-2-(2-(cinnamyl(methyl)amino)ethyl)-4-(4-fluorophenyl)-N-hydroxy-4-methoxybutanamide] gave a pKi of 6.28.

For the compound `CO[C@H](C[C@H](CCN(C)CCc1ccccc1)C(=O)NO)c1ccc(F)cc1` [Compound 167952, (2S,4R)-4-(4-fluorophenyl)-N-hydroxy-4-methoxy-2-(2-(methyl(phenethyl)amino)ethyl)butanamide], the pKi was 6.11.

As to `CO[C@H](C[C@H](CCN(C)c1ccc(Br)cc1)C(=O)NO)c1ccc(F)cc1` [Compound 168013, (2S,4R)-2-(2-((4-bromophenyl)(methyl)amino)ethyl)-4-(4-fluorophenyl)-N-hydroxy-4-methoxybutanamide], the negative logarithm of the Ki (pKi) was 5.74.

For `CCC[C@@H](C[C@@H](OC)c1ccc(F)cc1)C(=O)NO` [Compound 167432, (S)-2-((R)-2-(4-fluorophenyl)-2-methoxyethyl)-N-hydroxypentanamide], the pKi is 5.80.

For the compound `COC(CCC(=O)NO)c1cccc(C)c1C` (stereo not shown) [Compound 167495, 4-(2,3-dimethylphenyl)-N-hydroxy-4-methoxybutanamide], the pKi is 3.57.

The compound `CO[C@H](C[C@H](CCN(c1ccccc1)c1ccccc1)C(=O)NO)c1ccc(F)cc1` [Compound 167796, (2S)-(2-Diphenylamino-ethyl)-(4R)-(4-fluoro-phenyl)-N-hydroxy-4-methoxy-butyramide] gave a pKi of 5.68. Against the preceding compound, the pKi is 2.11 log units higher.

Turning to `CO[C@H](C[C@H](CCN(C)c1ccccc1)C(=O)NO)c1ccc(F)cc1` [Compound 168028, (2S,4R)-4-(4-fluorophenyl)-N-hydroxy-4-methoxy-2-(2-(methyl(phenyl)amino)ethyl)butanamide], the pKi was 5.74.

The compound `CO[C@H](C[C@H](CCN(C)Cc1cccc(-c2ccc(F)c(C)c2)c1)C(=O)NO)c1ccc(F)cc1` [Compound 168003, (2S,4R)-2-(2-(((4′-fluoro-3′-methylbiphenyl-3-yl)methyl)(methyl)amino)ethyl)-4-(4-fluorophenyl)-N-hydroxy-4-methoxybutanamide] had a negative-log Ki (pKi) of 5.64.

`COC(CCC(=O)NO)c1ccc(F)c(C)c1` (stereo not shown) [Compound 167232, 4-(4-fluoro-3-methylphenyl)-N-hydroxy-4-methoxybutanamide] showed a pKi of 5.05.
